System: 354836-022-R-J1-PDC multicell spheroid viability
Assay: Anticancer human tumor 354836-022-R-J1-PDC patient-derived head and neck squamous cell carcinoma cell line growth inhibition [PI3K]
Conditions: for IC50: curve of first compound; for viability, T/C: stronger effect = lower value
Method in brief: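 Complex 3D spheroids (cancer cells + endothelial HUVEC + mesenchymal stem cells); drug pairs of targeted agent x inavolisib/alpelisib/duvelisib/copanlisib; half-log series from ~Cmax, max 10 microM if Cmax unknown; endpoint viability.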

[1] = second compound 0.0316 µM, first compound 0.0316 µM
[2] = second compound 0.0316 µM, first compound 0.1 µM
[3] = second compound 0.1 µM, first compound 0.0316 µM
[4] = second compound 0.1 µM, first compound 0.1 µM
[5] = second compound 0.316 µM, first compound 0.0316 µM
[6] = second compound 0.316 µM, first compound 0.1 µM
[7] = second compound 1 µM, first compound 0.0316 µM
[8] = second compound 1 µM, first compound 0.1 µM
[9] = second compound 3.16 µM, first compound 0.0316 µM
[10] = second compound 3.16 µM, first compound 0.1 µM
[11] = second compound 10 µM, first compound 0.0316 µM
[12] = second compound 10 µM, first compound 0.1 µM
[13] = second compound 0.0316 µM, first compound 0.316 µM
[14] = second compound 0.0316 µM, first compound 1 µM
[15] = second compound 0.0316 µM, first compound 3.16 µM
[16] = second compound 0.0316 µM, first compound 10 µM
[17] = second compound 0.1 µM, first compound 0.316 µM
[18] = second compound 0.1 µM, first compound 1 µM
[19] = second compound 0.1 µM, first compound 3.16 µM
[20] = second compound 0.1 µM, first compound 10 µM
[21] = second compound 0.316 µM, first compound 0.316 µM
[22] = second compound 0.316 µM, first compound 1 µM
[23] = second compound 0.316 µM, first compound 3.16 µM
[24] = second compound 0.316 µM, first compound 10 µM
[25] = second compound 1 µM, first compound 0.316 µM
[26] = second compound 1 µM, first compound 1 µM
[27] = second compound 1 µM, first compound 3.16 µM
[28] = second compound 1 µM, first compound 10 µM
[29] = second compound 3.16 µM, first compound 0.316 µM
[30] = second compound 3.16 µM, first compound 1 µM
[31] = second compound 3.16 µM, first compound 3.16 µM
[32] = second compound 3.16 µM, first compound 10 µM
[33] = second compound 10 µM, first compound 0.316 µM
[34] = second compound 10 µM, first compound 1 µM
[35] = second compound 10 µM, first compound 3.16 µM
[36] = second compound 10 µM, first compound 10 µM
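Further: spheroids exposed to agents for seven days before the viability read.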

## CC(C)n1nc(-c2ccc3oc(N)nc3c2)c2c(N)ncnc21 + Cc1nc(NC(=O)N2CCCC2C(N)=O)sc1-c1ccnc(C(C)(C)C(F)(F)F)c1
Second compound 0.0316 µM
  IC50: 14.2 nM
Second compound 0.1 µM
  IC50: 8.94 nM
Second compound 0.316 µM
  IC50: 11.1 nM
Second compound 1 µM
  IC50: 8.28 nM
Second compound 3.16 µM
  IC50: 3.89 nM
Second compound 10 µM
  IC50: < 0.316 nM
Second compound 0.0316 µM, first compound 0.000316 µM
  viability, T/C: 92.2%
Second compound 0.0316 µM, first compound 0.001 µM
  viability, T/C: 87.7%
Second compound 0.0316 µM, first compound 0.00316 µM
  viability, T/C: 88.7%
Second compound 0.0316 µM, first compound 0.01 µM
  viability, T/C: 44.3%
[1]
  viability, T/C: 41.7%
[2]
  viability, T/C: 9.88%
Second compound 0.1 µM, first compound 0.000316 µM
  viability, T/C: 89.6%
Second compound 0.1 µM, first compound 0.001 µM
  viability, T/C: 82.7%
Second compound 0.1 µM, first compound 0.00316 µM
  viability, T/C: 102%
Second compound 0.1 µM, first compound 0.01 µM
  viability, T/C: 45.5%
[3]
  viability, T/C: 36%
[4]
  viability, T/C: 11.5%
Second compound 0.316 µM, first compound 0.000316 µM
  viability, T/C: 76.1%
Second compound 0.316 µM, first compound 0.001 µM
  viability, T/C: 80.2%
Second compound 0.316 µM, first compound 0.00316 µM
  viability, T/C: 81.3%
Second compound 0.316 µM, first compound 0.01 µM
  viability, T/C: 49.1%
[5]
  viability, T/C: 26.3%
[6]
  viability, T/C: 10.8%
Second compound 1 µM, first compound 0.000316 µM
  viability, T/C: 72.5%
Second compound 1 µM, first compound 0.001 µM
  viability, T/C: 69.4%
Second compound 1 µM, first compound 0.00316 µM
  viability, T/C: 69.2%
Second compound 1 µM, first compound 0.01 µM
  viability, T/C: 43%
[7]
  viability, T/C: 26.5%
[8]
  viability, T/C: 8.31%
Second compound 3.16 µM, first compound 0.000316 µM
  viability, T/C: 55.8%
Second compound 3.16 µM, first compound 0.001 µM
  viability, T/C: 45.2%
Second compound 3.16 µM, first compound 0.00316 µM
  viability, T/C: 60.2%
Second compound 3.16 µM, first compound 0.01 µM
  viability, T/C: 39.2%
[9]
  viability, T/C: 22%
[10]
  viability, T/C: 5.92%
Second compound 10 µM, first compound 0.000316 µM
  viability, T/C: 40.9%
Second compound 10 µM, first compound 0.001 µM
  viability, T/C: 40.5%
Second compound 10 µM, first compound 0.00316 µM
  viability, T/C: 40.1%
Second compound 10 µM, first compound 0.01 µM
  viability, T/C: 26.4%
[11]
  viability, T/C: 15.2%
[12]
  viability, T/C: 4.44%

## CC1(C)CCC(CN2CCN(c3ccc(C(=O)NS(=O)(=O)c4ccc(NCC5CCOCC5)c([N+](=O)[O-])c4)c(Oc4cnc5[nH]ccc5c4)c3)CC2)=C(c2ccc(Cl)cc2)C1 + Cc1nc(NC(=O)N2CCCC2C(N)=O)sc1-c1ccnc(C(C)(C)C(F)(F)F)c1
Second compound 0.0316 µM
  IC50: 4530 nM
Second compound 0.1 µM
  IC50: 4080 nM
Second compound 0.316 µM
  IC50: 4270 nM
Second compound 1 µM
  IC50: 4310 nM
Second compound 3.16 µM
  IC50: 2740 nM
Second compound 10 µM
  IC50: < 31.6 nM
[1]
  viability, T/C: 99.3%
[2]
  viability, T/C: 82.3%
[13]
  viability, T/C: 94.3%
[14]
  viability, T/C: 91.7%
[15]
  viability, T/C: 70.1%
[16]
  viability, T/C: 5.83%
[3]
  viability, T/C: 109%
[4]
  viability, T/C: 93%
[17]
  viability, T/C: 97.1%
[18]
  viability, T/C: 100%
[19]
  viability, T/C: 63%
[20]
  viability, T/C: 4.78%
[5]
  viability, T/C: 99.7%
[6]
  viability, T/C: 86.4%
[21]
  viability, T/C: 79.5%
[22]
  viability, T/C: 91.9%
[23]
  viability, T/C: 65.4%
[24]
  viability, T/C: 6.04%
[7]
  viability, T/C: 83.7%
[8]
  viability, T/C: 79.6%
[25]
  viability, T/C: 88.4%
[26]
  viability, T/C: 79.7%
[27]
  viability, T/C: 67%
[28]
  viability, T/C: 4.76%
[9]
  viability, T/C: 68.3%
[10]
  viability, T/C: 66.5%
[29]
  viability, T/C: 72.1%
[30]
  viability, T/C: 60.8%
[31]
  viability, T/C: 48.8%
[32]
  viability, T/C: 4.11%
[11]
  viability, T/C: 38.1%
[12]
  viability, T/C: 39.8%
[33]
  viability, T/C: 43.8%
[34]
  viability, T/C: 37.4%
[35]
  viability, T/C: 34.6%
[36]
  viability, T/C: 7.88%

## C[C@@H](NC(=O)c1ncnc(N)c1Cl)c1ncc(C(=O)Nc2cc(C(F)(F)F)c(Cl)cn2)s1 + Cc1nc(NC(=O)N2CCCC2C(N)=O)sc1-c1ccnc(C(C)(C)C(F)(F)F)c1
Second compound 0.0316 µM
  IC50: > 10000 nM
Second compound 0.1 µM
  IC50: > 10000 nM
Second compound 0.316 µM
  IC50: > 10000 nM
Second compound 1 µM
  IC50: > 10000 nM
Second compound 3.16 µM
  IC50: > 10000 nM
Second compound 10 µM
  IC50: < 31.6 nM
[1]
  viability, T/C: 103%
[2]
  viability, T/C: 78.6%
[13]
  viability, T/C: 95.9%
[14]
  viability, T/C: 87.3%
[15]
  viability, T/C: 86.6%
[16]
  viability, T/C: 60.6%
[3]
  viability, T/C: 94.6%
[4]
  viability, T/C: 95.4%
[17]
  viability, T/C: 98%
[18]
  viability, T/C: 97.2%
[19]
  viability, T/C: 96.7%
[20]
  viability, T/C: 66.2%
[5]
  viability, T/C: 77.7%
[6]
  viability, T/C: 89.7%
[21]
  viability, T/C: 86.5%
[22]
  viability, T/C: 90.8%
[23]
  viability, T/C: 89.6%
[24]
  viability, T/C: 77.8%
[7]
  viability, T/C: 65.3%
[8]
  viability, T/C: 87.1%
[25]
  viability, T/C: 76.4%
[26]
  viability, T/C: 75.3%
[27]
  viability, T/C: 78.4%
[28]
  viability, T/C: 67.7%
[9]
  viability, T/C: 53.9%
[10]
  viability, T/C: 59.8%
[29]
  viability, T/C: 70.1%
[30]
  viability, T/C: 59.7%
[31]
  viability, T/C: 66.5%
[32]
  viability, T/C: 37.8%
[11]
  viability, T/C: 32.1%
[12]
  viability, T/C: 38.4%
[33]
  viability, T/C: 37.8%
[34]
  viability, T/C: 39.2%
[35]
  viability, T/C: 36.1%
[36]
  viability, T/C: 16.7%

From PubChem BioAssay AID1963981 (Molecular Pharmacology Branch, DTP, NCI, 2024)
